ChEMBL document CHEMBL2401662, “The synthesis of neurotensin antagonist SR 48692 for prostate cancer research” (Bioorg Med Chem, 2013)
Calls of active or inactive are those of the source. No cut-off for these calls is given here.

Assays:
LNCaP [1] = assay: Cytotoxicity against human LNCAP cells at >/= 50 uM after 5 days by CellTitre Glo assay; format: functional, cell-based
Sortilin = target: T1, Sortilin (Homo sapiens, UniProt Q99523); assay: Binding affinity to NTR3 (unknown origin)
T1 sequence (Q99523 whole entry): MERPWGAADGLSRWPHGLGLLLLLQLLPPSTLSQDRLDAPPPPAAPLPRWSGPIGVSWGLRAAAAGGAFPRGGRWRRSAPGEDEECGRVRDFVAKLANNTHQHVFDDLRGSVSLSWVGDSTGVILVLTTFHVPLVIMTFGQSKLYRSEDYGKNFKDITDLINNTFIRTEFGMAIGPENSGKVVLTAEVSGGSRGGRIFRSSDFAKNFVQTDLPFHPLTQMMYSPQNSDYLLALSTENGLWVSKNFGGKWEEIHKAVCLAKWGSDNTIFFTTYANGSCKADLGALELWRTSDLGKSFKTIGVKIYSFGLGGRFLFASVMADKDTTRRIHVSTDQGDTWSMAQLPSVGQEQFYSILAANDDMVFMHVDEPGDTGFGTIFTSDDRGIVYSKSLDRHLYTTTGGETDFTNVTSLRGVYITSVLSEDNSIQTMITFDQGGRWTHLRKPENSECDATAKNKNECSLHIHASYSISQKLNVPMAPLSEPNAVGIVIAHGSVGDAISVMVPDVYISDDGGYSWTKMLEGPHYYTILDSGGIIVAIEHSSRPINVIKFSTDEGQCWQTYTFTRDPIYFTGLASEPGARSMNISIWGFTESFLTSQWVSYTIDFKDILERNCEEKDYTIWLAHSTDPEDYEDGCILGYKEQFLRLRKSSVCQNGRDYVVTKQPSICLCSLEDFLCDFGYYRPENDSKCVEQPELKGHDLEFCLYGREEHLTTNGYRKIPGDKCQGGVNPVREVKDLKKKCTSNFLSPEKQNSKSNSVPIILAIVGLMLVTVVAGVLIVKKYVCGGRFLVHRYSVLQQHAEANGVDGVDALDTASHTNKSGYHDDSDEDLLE

SK-OV-3 [2] = assay: Cytotoxicity against human SKOV3 cells at < 100 uM by MTS assay; format: functional, cell-based
[3] = target: Neurotensin receptor type 1 (Rattus norvegicus, UniProt P20789); assay: Displacement of [125I]NT from rat NTR1 transfected in mouse LTK cells; format: cell-based
SK-OV-3 [4] = assay: Cytotoxicity against human SKOV3 cells at 100 uM by MTS assay; format: functional, cell-based
LNCaP [5] = assay: Cytotoxicity against human biculamide-resistant LNCAP cells at >/= 50 uM after 5 days by CellTitre Glo assay; format: functional, cell-based
LNCaP C4-2B = assay: Cytotoxicity against human C4-2B cells at >/= 50 uM after 5 days by CellTitre Glo assay; format: functional, cell-based
[6] = Cytotoxicity against human C4-2B cells after 5 days by CellTitre Glo assay; format: functional, cell-based; conditions: LNCaP C4-2B, 120 h
[7] = target: Neurotensin receptor type 2 (Homo sapiens, UniProt O95665); assay: Binding affinity to NTR2 (unknown origin)
Sequence of Neurotensin receptor type 2 (O95665 whole entry): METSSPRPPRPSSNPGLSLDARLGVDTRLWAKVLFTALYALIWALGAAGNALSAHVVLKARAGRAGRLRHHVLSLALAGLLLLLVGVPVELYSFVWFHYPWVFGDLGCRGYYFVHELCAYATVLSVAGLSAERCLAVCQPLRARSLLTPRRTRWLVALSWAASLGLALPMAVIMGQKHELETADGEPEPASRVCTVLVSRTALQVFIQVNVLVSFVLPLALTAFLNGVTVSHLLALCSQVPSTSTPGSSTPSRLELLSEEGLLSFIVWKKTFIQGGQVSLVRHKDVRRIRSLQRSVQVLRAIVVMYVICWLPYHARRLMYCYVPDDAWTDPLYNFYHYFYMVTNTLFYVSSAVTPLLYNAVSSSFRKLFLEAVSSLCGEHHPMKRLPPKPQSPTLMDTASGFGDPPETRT

Sequence of Neurotensin receptor type 1 (P20789 whole entry): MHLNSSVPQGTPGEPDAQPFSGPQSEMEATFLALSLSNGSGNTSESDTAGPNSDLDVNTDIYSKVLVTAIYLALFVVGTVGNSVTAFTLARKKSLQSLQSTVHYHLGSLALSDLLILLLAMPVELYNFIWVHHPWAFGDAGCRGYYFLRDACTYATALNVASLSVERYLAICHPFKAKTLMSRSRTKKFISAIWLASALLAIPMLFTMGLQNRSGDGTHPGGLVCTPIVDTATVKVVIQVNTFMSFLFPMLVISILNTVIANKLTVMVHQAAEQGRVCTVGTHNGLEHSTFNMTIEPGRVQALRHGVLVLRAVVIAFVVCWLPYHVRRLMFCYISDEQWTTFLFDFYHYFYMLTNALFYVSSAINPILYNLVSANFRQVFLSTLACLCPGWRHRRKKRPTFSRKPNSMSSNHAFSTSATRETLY

IC50 (Sortilin): 238 nM | Ki [3]: 2.6 nM | Ki [7]: 418 nM
Compound: COc1cccc(OC)c1-c1cc(C(=O)NC2(C(=O)O)C3CC4CC(C3)CC2C4)nn1-c1ccnc2cc(Cl)ccc12 (centres undefined) [REMINERTANT]
Activity (LNCaP [1]): Active | Activity (SK-OV-3 [2]): inactive | Activity (SK-OV-3 [4]): Active | Activity (LNCaP [5]): Active | Activity (LNCaP C4-2B): Active | IC50 [6]: 30000 nM
